Measured values from patent publication US9232789B2, “Biostatic neutralizing composition for aqueous fluids” (ARKEMA FRANCE, priority 2010, dated 2016).

Columns and labels:
[1] = Test of neutralization (weight of amine necessary for neutralizing 100 g of oleic acid); assay type: physicochemical; settings: for Amount necessary for neutralizing 100 g of oleic acid: weight of amine per 100 g of oleic acid
Experimental: The neutralizing capacity is evaluated by determining the weight of amine (in grams) necessary for neutralizing 100 g of oleic acid. In this example, the neutralizing capacities of the following products are compared: • Amine (1) alone: monoethanolamine (MEoA); • Amine (2) alone: n-heptyldiethanolamine ([…]); • Mixture of amine (1)+amine (2): 70% by weight of MEoA+30% by weight of […].

[2] = system: Pseudomonas aeruginosa and Staphylococcus aureus; assay: Test of bacterial proliferation, bactericidal and/or bacteriostatic activity according to standard NF EN 1040; assay type: cell-based; parameters: key: +: low degree of reduction; ++++: high degree of reduction; settings: surviving bacteria counted after 5 minutes contact at 20° C.
Experimental: A test is carried out in order to evaluate the bactericidal and/or bacteriostatic activity of a sample of the composition of the invention, according to the standard NF EN 1040 (April 2006). A sample of a composition as it is (maximum concentration of the test: 80%) and/or diluted with water is added to a test suspension of bacteria (Pseudomonas aeruginosa and Staphylococcus aureus). The mixture is maintained at 20° C. for 5 minutes. An aliquote portion is removed at the end of this contact time; the bactericidal and/or bacteriostatic activity in this withdrawal is immediately neutralized or suppressed according to a validated method. The method used preferably is the dilution-neutralization method. Filtration over a membrane is used when it is not possible to find a suitable neutralizer. The surviving bacteria in each sample are counted, which makes it possible to calculate the degree of reduction, denoted by “+” (low degree of reduction) to “++++” (high degree of reduction) in table 2 below: […]

[3] = assay type: physicochemical
Source text: In this example, the following two amines are considered: • Amine (1) alone: methyldiethanolamine (MDEoA); • Amine (2) alone: n-heptyldiethanolamine (C7DEoA).
The appended FIG. 1 represents a ternary phase diagram between these 2 amines and water. The percentages are expressed by weight. The miscible mixtures are denoted by points (●), the immiscible mixtures are denoted by crosses (X).
The C7DEoA/water binary mixture is not miscible in all proportions. There is immiscibility when the C7DEoA is found in an amount of greater than 50%. In the area of immiscibility (amount of C7DEoA greater than 50%), the MDEoA acts as a coupling agent (co-solvent) when it is present in a content of greater than 15%.

| Compound | Amount necessary for neutralizing 100 g of oleic acid [1] [g] | Degree of reduction [2] | amount of C7DEoA in C7DEoA/water binary mixture at which there is immiscibility [3] | neutralizing capacity (in words) ([1]; oleic acid neutralization) |
| --- | --- | --- | --- | --- |
| NCCO [MEoA, monoethanolamine, reference compound] | 6.8 | + |  |  |
| n-heptyldiethanolamine [Composition C7DEoA] | 36 | ++++ | greater than 50% | much lower |
